US12366579B2, “Sulfur-heterocycle exchange chemistry and uses thereof” (University of Virginia Patent Foundation, priority 2019, dated 2025)

Columns and labels:
[1] = system: human cell proteomes (HEK293T, A549, DM93, H82, and Jurkat cells); experiment: LC-MS chemical proteomics of probe-modified tyrosine sites across 5 cell proteomes; format: binding; details: HHS-465 and -475 together; 100 μM, 1 hr, 25° C.
Protocol: Proteomes were diluted to 2.3 mg/mL in PBS and sample aliquots (432 μL) were treated with sulfonyl-triazole or -fluoride probes at the indicated concentrations (5 μL, 100× stock in DMSO), mixed gently and incubated for 1 h at room temperature. Probe-modified proteomes were subjected to CuAAC conjugation to desthiobiotin-PEG3-azide (10 μL of 10 mM stock in DMSO; final concentration of 200 μM) using TCEP (10 μL of fresh 50 mM stock in water; 1 mM final concentration), TBTA ligand (33 μL of a 1.7 mM 4:1 t-butanol/DMSO stock, 100 μM final concentration), and CuSO4 (10 μL of 50 mM stock, 1 mM final concentration). Samples were mixed by vortexing and then incubated for 1 h at room temperature. Excess reagents were removed by chloroform-methanol extraction as previously described^51. Protein pellets were re-suspended in 500 μL of 6M urea/25 mM ammonium bicarbonate followed by DTT reduction and IAA alkylation as previously described^5. Excess reagents were removed by chloroform/methanol extraction as described above, and the protein pellet was re-suspended in 500 μL of 25 mM ammonium bicarbonate and then digested to peptides using trypsin/Lys-C (7.5 μg in 15 μL of ammonium bicarbonate, sequencing grade from Promega, Madison, Wisconsin, United States of America) was added to the mixture and incubated for 3 hrs at 37° C. […]

[2] = HPLC assay, p-cresol reactivity against a sulfonyl probe mixture; format: physicochemical; details: TMG 1.1 equivalents, 0° C.
Protocol: The following reagents were prepared and kept at 0° C. prior to use: 0.1 M solution of caffeine in acetonitrile (ACN), 1.0 M solution of n-butylamine, p-cresol, tetramethylguanidine (TMG), acetic acid in ACN, and 10 mM solution of the probes in a mixture of DMF-ACN (v/v=10:90) are made.
(i) p-Cresol reactivity against a probe mixture: A solution of p-cresol (16.5 μmol, 3.3 eq) was premixed with 1.1, 2.2, or 3.3 eq of TMG. To initiate the reaction, the p-cresol/TMG solution was added to a sulfonyl probe mixture of HHS-475/HHS-482/HHS-SF-1 (500 μL, 5 μmol, 1.0 eq each) and the reaction was kept at 0° C. The reaction progress was monitored by taking out a 50.0 μL aliquot of the reaction mixture at various time points followed by addition of a 10 μL quenching solution of acetic acid (0.5 M final, 5.0 μmol) and the internal caffeine standard (0.05 M final, 0.5 μmol). Sample (1.0 μL) was injected and analyzed by reverse-phase HPLC on a Shimadzu 1100 Series spectrometer (Shimadzu, Kyoto, Japan) with UV detection at 254 nm. Reaction progress was evaluated by monitoring consumption of sulfonyl probes because all probes generate a shared p-cresol and n-butylamine product. Chromatographic separation was performed using a Phenomenex Kinetex C18 column (2.6 μm, 50 mm×4.6 mm, Phemonenex, Torrance, California, United States of America). […]

C#CCNC(=O)c1ccc(S(=O)(=O)n2cncn2)cc1 [HHS-475, 4-((1H-1,2,4-Triazol-1-yl)sulfonyl)-N-(prop-2-yn-1-yl)benzamide]
tyrosine sites identified in aggregate across 5 cell proteomes [1]: ~8,000 sites
time to consumption of probe by p-cresol [2]: ≤ 30 min
